Data set [1] addresses DNA replication licensing factor MCM7 (Homo sapiens) (UniProt P33993). Nature of the data set: Induction of ubiquitination of MCM7 in human NCI-H1975 cells at 140 nM in presence of MG132 incubated for 48 hrs followed by MG132 addition and measured after 12 hrs by immunoblot analysis. The class given is cell-based.
Data set [2] relates to NCI-H1975. In words: Antitumor activity against human NCI-H1975 cells xenografted in athymic nude BALB/c mouse assessed as tumor growth at 4 mg/kg, ip administered for 4 weeks (reference value: 1217 +/- 516.6 cu.mm). The class given is functional.
The target in data set [3] is T1, DNA replication licensing factor MCM6 (Homo sapiens) (UniProt Q14566).
T1 sequence (whole entry): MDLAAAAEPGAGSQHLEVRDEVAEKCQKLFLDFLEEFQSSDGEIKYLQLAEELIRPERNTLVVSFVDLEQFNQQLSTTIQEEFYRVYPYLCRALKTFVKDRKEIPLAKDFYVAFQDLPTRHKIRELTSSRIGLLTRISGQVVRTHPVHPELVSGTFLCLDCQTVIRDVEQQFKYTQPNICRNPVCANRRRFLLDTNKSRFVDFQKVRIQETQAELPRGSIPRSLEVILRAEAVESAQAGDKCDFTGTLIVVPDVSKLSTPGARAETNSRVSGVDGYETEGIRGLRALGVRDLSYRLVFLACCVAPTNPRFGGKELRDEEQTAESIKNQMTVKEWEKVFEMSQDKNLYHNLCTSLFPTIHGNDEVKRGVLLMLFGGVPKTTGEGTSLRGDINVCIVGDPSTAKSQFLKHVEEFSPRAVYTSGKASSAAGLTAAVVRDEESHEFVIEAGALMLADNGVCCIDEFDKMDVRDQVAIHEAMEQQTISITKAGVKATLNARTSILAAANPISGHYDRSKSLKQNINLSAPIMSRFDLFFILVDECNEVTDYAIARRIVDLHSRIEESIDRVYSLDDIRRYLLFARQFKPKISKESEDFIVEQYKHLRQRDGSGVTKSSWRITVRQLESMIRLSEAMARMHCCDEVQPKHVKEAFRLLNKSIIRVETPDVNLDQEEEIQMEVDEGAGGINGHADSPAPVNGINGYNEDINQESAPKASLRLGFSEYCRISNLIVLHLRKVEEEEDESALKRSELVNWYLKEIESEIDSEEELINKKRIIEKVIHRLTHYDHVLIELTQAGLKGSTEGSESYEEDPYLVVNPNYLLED
In words: Induction of ubiquitination of MCM6 in human NCI-H1975 cells incubated for 24 hrs by immunoblot analysis. The class given is cell-based.

Data set [4] in a line: Toxicity in athymic nude BALB/c mouse xenografted with human NCI-H1975 cells assessed as effect on kidney at 1 or 4 mg/kg, ip administered for 4 weeks. Type of data set: organism-based. The settings on record: in vivo, 672 h.
The subject of data set [5] is NCI-H1975. In words: Antitumor activity against human NCI-H1975 cells xenografted in athymic nude BALB/c mouse assessed as tumor growth inhibition at 4 mg/kg, ip administered for 4 weeks relative to control. The class given is functional. To be noted: 672 h, read-out: TGI.
Data set [6] deals with NCI-H1975. Nature of the data set: Cell cycle arrest in human NCI-H1975 cells assessed as accumulation in G1/S phase at 140 nM incubated for 48 hrs by DAPI staining based immunofluorescence microscopy. Type of data set: functional.
Data set [7] has as its target T2, DNA replication licensing factor MCM4 (Homo sapiens) (UniProt P33991).
T2 sequence (whole entry): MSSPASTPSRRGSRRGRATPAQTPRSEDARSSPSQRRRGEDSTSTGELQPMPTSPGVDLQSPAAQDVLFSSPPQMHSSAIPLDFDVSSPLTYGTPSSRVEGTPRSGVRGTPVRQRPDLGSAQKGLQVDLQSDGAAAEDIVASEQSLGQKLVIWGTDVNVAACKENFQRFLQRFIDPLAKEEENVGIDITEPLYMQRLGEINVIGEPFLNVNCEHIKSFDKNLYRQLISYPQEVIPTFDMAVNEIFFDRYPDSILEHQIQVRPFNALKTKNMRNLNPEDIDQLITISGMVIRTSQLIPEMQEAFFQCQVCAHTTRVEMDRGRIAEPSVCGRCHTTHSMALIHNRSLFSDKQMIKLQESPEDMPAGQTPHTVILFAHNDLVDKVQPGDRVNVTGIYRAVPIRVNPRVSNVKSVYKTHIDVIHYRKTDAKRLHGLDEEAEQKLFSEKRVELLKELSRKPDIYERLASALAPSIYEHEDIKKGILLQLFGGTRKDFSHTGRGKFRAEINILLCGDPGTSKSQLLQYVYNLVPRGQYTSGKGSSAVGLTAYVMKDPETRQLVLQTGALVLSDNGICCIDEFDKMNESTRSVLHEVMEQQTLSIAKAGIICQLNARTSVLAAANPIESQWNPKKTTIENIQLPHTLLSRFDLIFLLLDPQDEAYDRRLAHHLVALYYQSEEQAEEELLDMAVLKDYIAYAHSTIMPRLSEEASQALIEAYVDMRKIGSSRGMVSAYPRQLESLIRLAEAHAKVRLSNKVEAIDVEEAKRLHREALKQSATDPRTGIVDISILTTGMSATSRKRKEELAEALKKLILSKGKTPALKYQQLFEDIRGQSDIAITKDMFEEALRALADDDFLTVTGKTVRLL
Nature of the data set: Induction of ubiquitination of MCM4 in human NCI-H1975 cells incubated for 48 hrs by immunoblot analysis (reference value: 1). The class given is cell-based.

In data set [8] the test system is NCI-H1975. Nature of the data set: Cell cycle arrest in human NCI-H1975 cells assessed as BrdU positive cells at 140 nM incubated for 48 hrs by BrdUrd incorporation assay (reference value: 34 +/- 5.6 %). The class given is functional.
Data set [9] has as its system NCI-H1975. In words: Cell cycle arrest in human NCI-H1975 cells assessed as accumulation in S phase at 140 nM incubated for 72 hrs by propidium iodide base flow cytometry analysis (reference value: 2 %). The class given is functional.
The target of data set [10] is DNA replication licensing factor MCM7 (Homo sapiens) (UniProt P33993). Nature of the data set: Induction of ubiquitination of MCM7 in human NCI-H1975 cells incubated for 24 hrs by immunoblot analysis (reference value: 1). The class given is cell-based.
DNA replication licensing factor MCM7 (Homo sapiens), sequence (P33993 whole entry): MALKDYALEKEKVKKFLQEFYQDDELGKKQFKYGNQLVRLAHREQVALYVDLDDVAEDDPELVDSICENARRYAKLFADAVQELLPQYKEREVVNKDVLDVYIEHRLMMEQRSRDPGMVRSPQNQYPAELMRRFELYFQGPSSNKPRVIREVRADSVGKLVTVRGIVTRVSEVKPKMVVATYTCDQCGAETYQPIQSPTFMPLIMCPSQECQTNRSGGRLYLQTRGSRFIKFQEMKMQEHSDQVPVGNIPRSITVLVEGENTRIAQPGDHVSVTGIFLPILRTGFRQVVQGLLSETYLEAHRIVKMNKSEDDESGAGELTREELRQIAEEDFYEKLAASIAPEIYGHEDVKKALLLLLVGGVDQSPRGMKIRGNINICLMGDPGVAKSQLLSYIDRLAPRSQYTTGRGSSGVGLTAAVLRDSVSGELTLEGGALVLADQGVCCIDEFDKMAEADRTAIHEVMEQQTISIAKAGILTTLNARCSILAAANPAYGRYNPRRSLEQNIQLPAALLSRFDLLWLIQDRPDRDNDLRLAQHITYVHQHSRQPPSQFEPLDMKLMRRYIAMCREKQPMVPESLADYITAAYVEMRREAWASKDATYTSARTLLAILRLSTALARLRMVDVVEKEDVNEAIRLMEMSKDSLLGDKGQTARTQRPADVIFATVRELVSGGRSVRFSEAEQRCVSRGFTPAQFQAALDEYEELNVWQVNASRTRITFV
A short description of data set [11]: Antiproliferative activity against human PC9IR cells assessed as reduction in cell viability incubated for 72 hrs by SRB assay. Type of data set: functional, cell-based.
Data set [12] deals with T1, DNA replication licensing factor MCM6 (Homo sapiens). In words: Induction of ubiquitination of MCM6 in human NCI-H1975 cells incubated for 48 hrs by immunoblot analysis (reference value: 1). The class given is cell-based.
Data set [13] deals with NCI-H1975. Nature of the data set: Antiproliferative activity against human NCI-H1975 cells assessed as reduction in cell viability incubated for 72 hrs by SRB assay. Type of data set: functional, cell-based. To be noted: NCI-H1975, 72 h.
Data set [14] deals with NCI-H1975. In words: Induction of apoptosis in human NCI-H1975 cells assessed as increase in cleaved PARP1 level at 140 nM incubated upto 72 hrs by immunoblotting analysis. Type of data set: functional, cell-based.
The subject of data set [15] is NCI-H1975. Nature of the data set: Antitumor activity against human NCI-H1975 cells xenografted in athymic nude BALB/c mouse assessed as delay in tumor growth at 1 or 4 mg/kg, ip administered for 4 weeks. The class given is functional, organism-based.
A short description of data set [16]: Selectivity index, ratio of IC50 for human bronchial epithelial cells to IC50 for human NCI-H1975 cells. The class given is toxicity. The settings on record: human bronchial epithelial cells versus NCI-H1975 cells, read-out: Ratio IC50.

The source made the active and inactive calls. The rule behind the calls is not given here.

Turning to `Cc1oc2c(c1C(=O)NCCCn1ccnc1)C(=O)c1ccccc1C2=O`, the result (in data set [1]; in the data set with NCI-H1975 [6]; in the data set with NCI-H1975 [14]; in the data set on NCI-H1975 [15]) was Active. In addition, the Activity in the data set on NCI-H1975 [2] is 518 mm3; in data set [3], “Dose-dependent effect”; in [4], “Non-Toxic”; in [7] it was 1.1; with NCI-H1975 [8] it was 16%; with NCI-H1975 [9] it was 18%. For the same compound, the figures for the Activity in data set [10] and in [12] were 0.8 and 0.4, respectively. Also, the inhibition in vivo at 4 mg/kg in the data set on NCI-H1975 [5] was 59%. Moreover, the results for the IC50 (in [11]; with NCI-H1975 [13]) were less than 100 nM and 77 nM, respectively. The selectivity ratio in data set [16] is more than 10.
